From the Kinase Knowledgebase extract (Sharma et al. 2016)

How the values were obtained:
MAPK14 (human) [1] = target: MAPK14 (human) (UniProt Q16539); assay: Assessment of MAPK14 Kinase Activity
MAPK14 (human) [2] = target: MAPK14 (human) (UniProt Q16539); assay: Inhibition of MAPK14 Kinase Activity

MAPK14 (human), sequence (Q16539 whole entry, looked up): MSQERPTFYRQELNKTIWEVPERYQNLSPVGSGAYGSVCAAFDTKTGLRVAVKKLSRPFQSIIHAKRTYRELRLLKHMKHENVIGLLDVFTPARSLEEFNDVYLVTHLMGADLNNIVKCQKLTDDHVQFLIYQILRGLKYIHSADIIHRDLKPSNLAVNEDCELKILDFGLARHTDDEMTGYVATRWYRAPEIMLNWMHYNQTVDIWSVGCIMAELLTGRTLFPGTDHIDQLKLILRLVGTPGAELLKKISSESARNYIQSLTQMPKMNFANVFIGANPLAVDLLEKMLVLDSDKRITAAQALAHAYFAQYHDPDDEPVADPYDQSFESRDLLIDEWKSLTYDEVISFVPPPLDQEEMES

IC50 (MAPK14 (human) [1]) [µM]	IC50 (MAPK14 (human) [2]) [µM]	Structure (SMILES)
< 10	< 10	Cc1c(F)cc(C(=O)NC2CC2)cc1-c1ccc(C(=O)NC(C)(C)C)c[n+]1[O-]
	< 10	Cc1cc(C)cc(CNC(=O)c2ccc(-c3cc(C(=O)NC4CC4)cc(F)c3C)[n+]([O-])c2)c1
< 10	< 10	Cc1c(F)cc(C(=O)NC2CC2)cc1-c1ccc(C(=O)N[C@@H](C)C(C)(C)C)c[n+]1[O-]
	< 10	Cc1c(F)cc(C(=O)NC2CC2)cc1-c1ccc(C(=O)N[C@H](C)C(C)(C)C)c[n+]1[O-]
< 10	< 10	Cc1c(F)cc(C(=O)NC2CC2)cc1-c1ccc(C(=O)N[C@@H](C)C(C)C)c[n+]1[O-]

Further lines, the compound ahead of its results:

Structure (SMILES)	IC50 (MAPK14 (human) [1]) [µM]	IC50 (MAPK14 (human) [2]) [µM]
Cc1c(F)cc(C(=O)NC2CC2)cc1-c1ccc(C(=O)NCc2cc(C(F)(F)F)ccc2F)c[n+]1[O-]	< 10	< 10
Cc1c(F)cc(C(=O)NC2CC2)cc1-c1ccc(C(=O)NCC(C)C)c[n+]1[O-]		< 10
Cc1c(F)cc(C(=O)NC2CC2)cc1-c1ccc(C(=O)NCc2cc(F)ccc2C(F)(F)F)c[n+]1[O-]		< 10
